Reference: ChEMBL document CHEMBL1212695, “An allosteric potentiator of M4 mAChR modulates hippocampal synaptic transmission” (Nat Chem Biol, 2008)
Blank lines part the entries; values can stand above or below the compound they belong to. Calls of active or inactive are those of the source. The calls are words filed in the database; no cut-off is given here.

Tests used:
[1] = target: T1, Muscarinic acetylcholine receptor M4 (Rattus norvegicus) (UniProt P08485); experiment: (§1) Allosteric activation of rat recombinant muscarinic M4 receptor expressed in CHO cells assessed as potentiation of 10 uM acetylcholine-induced calcium mobilization after 1 hr by fluorescence assay; assay type: functional, cell-based
T1 sequence (whole entry): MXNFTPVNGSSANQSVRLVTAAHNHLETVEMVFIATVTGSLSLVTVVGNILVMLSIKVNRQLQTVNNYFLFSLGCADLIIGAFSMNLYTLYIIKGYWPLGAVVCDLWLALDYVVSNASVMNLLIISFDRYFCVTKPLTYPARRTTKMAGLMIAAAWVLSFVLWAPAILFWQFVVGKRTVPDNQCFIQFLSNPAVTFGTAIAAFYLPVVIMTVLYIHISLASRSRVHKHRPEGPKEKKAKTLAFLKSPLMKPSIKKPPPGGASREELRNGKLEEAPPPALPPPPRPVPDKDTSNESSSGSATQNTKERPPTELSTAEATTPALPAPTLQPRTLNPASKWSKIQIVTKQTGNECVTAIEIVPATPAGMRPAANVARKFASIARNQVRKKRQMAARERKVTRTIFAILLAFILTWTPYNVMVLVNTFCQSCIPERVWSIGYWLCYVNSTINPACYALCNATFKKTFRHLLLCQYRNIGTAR

[2] = target: T2, Muscarinic acetylcholine receptor M5 (Rattus norvegicus) (UniProt P08911); experiment: Allosteric activation of rat recombinant muscarinic M5 receptor expressed in CHO cells assessed as potentiation of acetylcholine-induced calcium mobilization at 10 uM after 1 hr by fluorescence assay; assay type: functional, cell-based
T2 sequence (whole entry): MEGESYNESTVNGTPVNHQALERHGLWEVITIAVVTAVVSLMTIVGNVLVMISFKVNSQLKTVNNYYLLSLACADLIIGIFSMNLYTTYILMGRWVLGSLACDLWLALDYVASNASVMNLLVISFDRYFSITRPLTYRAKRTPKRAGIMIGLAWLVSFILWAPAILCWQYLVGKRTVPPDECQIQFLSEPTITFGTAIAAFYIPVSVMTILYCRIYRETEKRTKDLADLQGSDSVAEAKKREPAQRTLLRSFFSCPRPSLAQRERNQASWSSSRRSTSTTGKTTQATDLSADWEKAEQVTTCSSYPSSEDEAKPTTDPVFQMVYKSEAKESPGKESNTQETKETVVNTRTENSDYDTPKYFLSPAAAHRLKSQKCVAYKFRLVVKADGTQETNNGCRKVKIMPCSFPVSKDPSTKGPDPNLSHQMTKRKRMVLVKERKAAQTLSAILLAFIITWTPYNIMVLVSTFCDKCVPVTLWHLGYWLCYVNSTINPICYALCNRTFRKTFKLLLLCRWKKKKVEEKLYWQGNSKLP

[3] = target: T3, Muscarinic acetylcholine receptor M4 (Rattus norvegicus, UniProt P08485); experiment: Allosteric activation of rat recombinant muscarinic M4 receptor expressed in CHO cells assessed as potentiation of 15 nM acetylcholine-induced calcium mobilization after 1 hr by fluorescence assay; assay type: functional, cell-based
T3 sequence (P08485 whole entry): T1 sequence (whole entry)

[4] = target: T4, Muscarinic acetylcholine receptor M1 (Rattus norvegicus) (UniProt P08482); experiment: Allosteric activation of rat recombinant muscarinic M1 receptor expressed in CHO cells assessed as potentiation of acetylcholine-induced calcium mobilization at 10 uM after 1 hr by fluorescence assay; assay type: functional, cell-based
T4 sequence (whole entry): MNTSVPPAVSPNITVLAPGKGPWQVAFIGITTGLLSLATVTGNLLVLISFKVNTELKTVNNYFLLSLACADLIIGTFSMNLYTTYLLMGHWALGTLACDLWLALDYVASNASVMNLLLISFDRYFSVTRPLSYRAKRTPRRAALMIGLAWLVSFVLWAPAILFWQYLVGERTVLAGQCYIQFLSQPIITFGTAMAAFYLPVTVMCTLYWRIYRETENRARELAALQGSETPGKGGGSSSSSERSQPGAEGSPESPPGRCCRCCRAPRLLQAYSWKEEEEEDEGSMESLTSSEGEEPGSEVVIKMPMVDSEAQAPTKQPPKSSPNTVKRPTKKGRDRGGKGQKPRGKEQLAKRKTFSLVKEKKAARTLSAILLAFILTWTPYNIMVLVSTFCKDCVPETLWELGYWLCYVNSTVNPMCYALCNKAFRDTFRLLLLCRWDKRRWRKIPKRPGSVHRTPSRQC

[5] = target: T5, Muscarinic acetylcholine receptor M2 (Rattus norvegicus) (UniProt P10980); experiment: Allosteric activation of rat recombinant muscarinic M2 receptor expressed in CHO cells assessed as potentiation of acetylcholine-induced calcium mobilization at 10 uM after 1 hr by fluorescence assay; assay type: functional, cell-based
T5 sequence (whole entry): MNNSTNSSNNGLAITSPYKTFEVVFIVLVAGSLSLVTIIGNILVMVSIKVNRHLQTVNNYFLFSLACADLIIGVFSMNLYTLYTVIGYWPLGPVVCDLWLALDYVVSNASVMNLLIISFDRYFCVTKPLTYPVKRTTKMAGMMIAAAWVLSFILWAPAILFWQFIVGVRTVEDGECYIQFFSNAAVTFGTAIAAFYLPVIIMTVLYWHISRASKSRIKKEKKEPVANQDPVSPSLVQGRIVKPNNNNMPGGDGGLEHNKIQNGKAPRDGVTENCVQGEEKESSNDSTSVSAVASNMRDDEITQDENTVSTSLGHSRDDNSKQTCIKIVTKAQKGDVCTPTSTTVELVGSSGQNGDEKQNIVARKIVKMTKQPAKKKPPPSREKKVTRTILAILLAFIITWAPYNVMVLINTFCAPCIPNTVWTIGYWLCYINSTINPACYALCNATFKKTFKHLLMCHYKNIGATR

[6] = target: Muscarinic acetylcholine receptor M3 (Rattus norvegicus) (UniProt P08483); experiment: Allosteric activation of rat recombinant muscarinic M3 receptor expressed in CHO cells assessed as potentiation of acetylcholine-induced calcium mobilization at 10 uM after 1 hr by fluorescence assay; assay type: functional, cell-based
Muscarinic acetylcholine receptor M3 (Rattus norvegicus), sequence (P08483 whole entry, looked up): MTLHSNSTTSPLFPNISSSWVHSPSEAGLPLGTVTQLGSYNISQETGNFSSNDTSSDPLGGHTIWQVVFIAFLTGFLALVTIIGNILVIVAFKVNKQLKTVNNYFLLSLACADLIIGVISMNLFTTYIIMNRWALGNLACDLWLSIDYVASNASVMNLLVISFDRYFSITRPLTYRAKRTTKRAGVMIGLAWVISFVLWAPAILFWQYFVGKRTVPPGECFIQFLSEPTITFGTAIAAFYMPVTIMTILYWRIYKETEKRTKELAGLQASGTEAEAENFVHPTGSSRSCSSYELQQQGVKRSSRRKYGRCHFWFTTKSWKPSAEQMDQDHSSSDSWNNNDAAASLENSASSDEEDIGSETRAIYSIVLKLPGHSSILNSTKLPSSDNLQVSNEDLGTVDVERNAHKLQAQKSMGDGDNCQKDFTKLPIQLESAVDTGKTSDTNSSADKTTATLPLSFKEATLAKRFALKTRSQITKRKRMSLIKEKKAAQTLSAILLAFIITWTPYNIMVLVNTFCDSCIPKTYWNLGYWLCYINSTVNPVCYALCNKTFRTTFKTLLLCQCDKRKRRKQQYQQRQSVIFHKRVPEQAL

[7] = target: T1, Muscarinic acetylcholine receptor M4 (Rattus norvegicus); experiment: Allosteric activation of rat recombinant muscarinic M4 receptor expressed in CHO cells assessed as […] in acetylcholine EC50 for induction of calcium mobilization at 10 uM after 1 hr by fluorescence assay; assay type: functional, cell-based
[8] = target: T3, Muscarinic acetylcholine receptor M4; experiment: as §1; assay type: functional, cell-based
[9] = target: T1, Muscarinic acetylcholine receptor M4 (Rattus norvegicus); experiment: Allosteric activation of rat recombinant muscarinic M4 receptor expressed in CHO cells assessed as induction of calcium mobilization after 1 hr by fluorescence assay; assay type: functional, cell-based
[10] = target: T1, Muscarinic acetylcholine receptor M4 (Rattus norvegicus); experiment: Agonist activity at muscarinic M4 receptor in Sprague-Dawley rat hippocampal CA1 pyramidal neuron assessed as reduction in excitatory postsynaptic current at 5 uM by whole-cell electrophysiology in presence of carbachol relative to control; assay type: functional, tissue-based; details: Hippocampus

SMILES: Cc1cc(C)c2c(N)c(C(=O)NCc3ccccc3)sc2n1
Activity [2]: inactive | EC50 [3]: 1.3 µM | Activity [4]: inactive | Activity [5]: inactive | Activity [6]: inactive

SMILES: Cc1cc(C)c2c(N)c(C(=O)NCc3ccc(F)cc3)sc2n1
fold change (FC) [7]: 30 | EC50 [8]: 0.3 µM

SMILES: CC(=O)OCC[N+](C)(C)C
EC20 [9]: 0.015 µM | EC100 [9]: 10 µM

SMILES: Cc1cc(C)c2c(N)c(C(=O)N[C@@H](C)c3ccccc3)sc2n1
inhibition [10]: 61.6% | Activity [1]: inactive

SMILES: Cc1cc(C)c2c(N)c(C(=O)NCc3ccc(C(F)(F)F)cc3)sc2n1
fold change (FC) [7]: 37 | EC50 [8]: 0.715 µM

SMILES: Cc1cc(C)c2c(N)c(C(=O)N[C@H](C)c3ccccc3)sc2n1
Activity [1]: Active

SMILES: Cc1cc(C)c2c(N)c(C(=O)NCc3ccco3)sc2n1
Activity [2]: inactive | fold change (FC) [7]: 21 | Activity [4]: inactive | Activity [5]: inactive | Activity [6]: inactive

Results, then the compound that gave them:

Activity [1]: Active
SMILES: CCNC(=O)c1sc2nc(C)cc(C)c2c1N

Activity [2]: inactive | EC50 [3]: 6 µM | Activity [4]: inactive | Activity [5]: inactive | Activity [6]: inactive
SMILES: Cc1cc(C)c2c(N)c(C(=O)NC(C)C)sc2n1

Activity [1]: Active
SMILES: CCCNC(=O)c1sc2nc(C)cc(C)c2c1N

Activity [1]: Active
SMILES: Cc1cc(C)c2c(N)c(C(=O)NCC(C)C)sc2n1

Activity [1]: Active
SMILES: Cc1cc(C)c2c(N)c(C(=O)NC3CC3)sc2n1

Activity [1]: Active
SMILES: Cc1cc(C)c2c(N)c(C(=O)NC(C)(C)C)sc2n1
